Test results reported in ChEMBL document CHEMBL5579895, “Discovery of TYRA-300: First Oral Selective FGFR3 Inhibitor for the Treatment of Urothelial Cancers and Achondroplasia” (J Med Chem, 2024).
Converted amounts (≈) assume the structure as drawn.

Tests used:
DMS-114 = assay: Inhibition of cell viability in human DMS-114 cells harboring FGFR1-amplification incubated for 72 to 120 hrs by Cell Titer Glo assay; assay type: functional, cell-based
[1] = Cmax in dog at 10 mg/kg, po measured for 24 hrs by LC-MS/MS analysis; assay type: ADME, organism-based, Canis lupus familiaris; settings: in vivo
[2] = molecular target: Vascular endothelial growth factor receptor 2 (Homo sapiens, UniProt P35968); assay: Inhibition of human VEGFR2 by KINOMEscan analysis
[3] = Volume of distribution in Sprague-Dawley rat at 2 mg/kg, iv measured for 24 hrs by LC-MS/MS analysis; assay type: ADME, organism-based; settings: in vivo
[4] = molecular target: Fibroblast growth factor receptor 3 (Homo sapiens, UniProt P22607, V555M); assay: Inhibition of FGFR3 V555M mutant (unknown origin) by mobility shift assay
Chain of Fibroblast growth factor receptor 3 (Homo sapiens, UniProt P22607, V555M) (P22607 23-806 V555M limits assumed): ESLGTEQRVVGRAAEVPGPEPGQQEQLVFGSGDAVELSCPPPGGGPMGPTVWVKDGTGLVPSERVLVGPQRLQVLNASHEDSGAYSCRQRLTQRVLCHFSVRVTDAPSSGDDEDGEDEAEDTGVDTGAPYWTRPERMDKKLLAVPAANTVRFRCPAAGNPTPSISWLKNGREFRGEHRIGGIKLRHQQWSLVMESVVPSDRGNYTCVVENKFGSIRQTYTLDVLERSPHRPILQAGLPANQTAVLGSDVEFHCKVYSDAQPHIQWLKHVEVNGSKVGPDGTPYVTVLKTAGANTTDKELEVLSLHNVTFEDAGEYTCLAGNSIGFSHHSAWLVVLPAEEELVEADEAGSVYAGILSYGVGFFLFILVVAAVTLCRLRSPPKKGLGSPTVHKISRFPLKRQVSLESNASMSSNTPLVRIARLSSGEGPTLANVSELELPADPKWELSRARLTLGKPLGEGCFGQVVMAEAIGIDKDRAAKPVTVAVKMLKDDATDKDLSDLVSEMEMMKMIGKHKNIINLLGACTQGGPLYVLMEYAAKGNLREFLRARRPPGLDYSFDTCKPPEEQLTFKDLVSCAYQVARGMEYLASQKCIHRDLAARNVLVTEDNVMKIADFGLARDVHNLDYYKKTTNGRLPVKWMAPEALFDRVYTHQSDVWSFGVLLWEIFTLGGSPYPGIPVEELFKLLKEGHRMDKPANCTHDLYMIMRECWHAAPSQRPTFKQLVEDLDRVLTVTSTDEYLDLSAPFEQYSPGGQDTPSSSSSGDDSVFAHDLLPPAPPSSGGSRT

[5] = Clearance in Sprague-Dawley rat at 2 mg/kg, iv measured for 24 hrs by LC-MS/MS analysis; assay type: ADME, organism-based; settings: in vivo
[6] = Inhibition of recombinant FGFR3/BAIAP2L1 (unknown origin) transduced in mouse BaF3 cells incubated for 48 hrs by Cell Titer Glo assay; assay type: cell-based; settings: BaF3, 48 h
[7] = molecular target: Fibroblast growth factor receptor 3 (Homo sapiens, UniProt P22607, K650M); assay: Inhibition of FGFR3 K650M mutant (unknown origin) by mobility shift assay
Chain of Fibroblast growth factor receptor 3 (Homo sapiens, UniProt P22607, K650M) (P22607 23-806 K650M limits assumed): as the sequence (P22607 23-806 V555M limits assumed) above, with M533V, K628M counted along it

[8] = Stability in mouse hepatocytes assessed as half life at 1 uM incubated upto 180 mins by LC-MS/MS analysis; assay type: ADME, cell-based, Hepatocyte
[9] = Cmax in Sprague-Dawley rat at 10 mg/kg, po measured for 24 hrs by LC-MS/MS analysis; assay type: ADME, organism-based; settings: in vivo
[10] = molecular target: Fibroblast growth factor receptor 4 (Homo sapiens, UniProt P22455); assay: Inhibition of human FGFR4 by KINOMEscan analysis
Chain of Fibroblast growth factor receptor 4 (P22455 whole entry): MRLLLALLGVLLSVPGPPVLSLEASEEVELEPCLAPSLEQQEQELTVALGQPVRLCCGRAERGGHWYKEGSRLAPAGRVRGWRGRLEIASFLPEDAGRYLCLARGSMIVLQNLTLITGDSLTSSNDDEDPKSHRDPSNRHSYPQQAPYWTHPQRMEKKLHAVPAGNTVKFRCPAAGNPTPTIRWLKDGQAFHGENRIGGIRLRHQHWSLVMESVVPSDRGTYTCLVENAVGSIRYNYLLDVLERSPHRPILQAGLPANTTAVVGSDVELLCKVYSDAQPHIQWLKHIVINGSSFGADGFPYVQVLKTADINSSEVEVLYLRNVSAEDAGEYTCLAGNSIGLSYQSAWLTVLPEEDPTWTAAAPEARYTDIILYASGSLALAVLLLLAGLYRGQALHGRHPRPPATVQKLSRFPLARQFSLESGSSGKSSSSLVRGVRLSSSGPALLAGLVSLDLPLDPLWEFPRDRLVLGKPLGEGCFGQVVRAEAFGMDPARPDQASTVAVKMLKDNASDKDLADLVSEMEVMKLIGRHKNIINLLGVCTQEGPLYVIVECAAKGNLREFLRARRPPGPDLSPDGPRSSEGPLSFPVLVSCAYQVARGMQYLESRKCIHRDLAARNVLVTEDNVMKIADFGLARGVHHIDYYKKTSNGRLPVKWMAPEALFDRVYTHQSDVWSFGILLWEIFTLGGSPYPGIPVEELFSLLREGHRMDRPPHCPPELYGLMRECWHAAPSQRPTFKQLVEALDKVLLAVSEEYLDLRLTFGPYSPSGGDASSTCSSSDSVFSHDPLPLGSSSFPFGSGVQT

[11] = Apparent permeability in MDCK-MDR1 cells; assay type: ADME, cell-based, Canis lupus familiaris; settings: dog
RT112/84 [12] = assay: cells; assay type: functional, cell-based; settings: Homo sapiens
Description: Inhibition of cell viability in human RT112/84 cells harboring FGFR3 V555M mutant incubated for 72 to 120 hrs by Cell Titer Glo assay

[13] = Thermodynamic solubility in FaSSGF; assay type: ADME; settings: read-out: Therm_solubility
[14] = Volume of distribution in monkey at 1 mg/kg, iv measured for 24 hrs by LC-MS/MS analysis; assay type: ADME, organism-based, Macaca mulatta; settings: rhesus monkey, in vivo
RT112/84 [15] = assay: animal or person; assay type: functional, Homo sapiens; settings: Mus musculus, RT112/84, 504 h, route po, time 21 day, read-out: TGI
Description: Antitumor activity against human RT112/84 cells harboring FGFR3 V555M mutant xenografted in Balb/c nude mouse model at 12.5 mg/kg, po bid treated for 21 days relative to control

[16] = molecular target: Fibroblast growth factor receptor 3 (Homo sapiens, UniProt P22607, N540K); assay: Inhibition of FGFR3 N540K mutant (unknown origin) by NanoBRET assay
Chain of Fibroblast growth factor receptor 3 (Homo sapiens, UniProt P22607, N540K) (P22607 23-806 N540K limits assumed): as the sequence (P22607 23-806 V555M limits assumed) above, with N518K, M533V counted along it

[17] = Inhibition of cell viability in human UMUC14 cells harboring FGFR3 S249C mutant incubated for 72 to 120 hrs by Cell Titer Glo assay; assay type: functional, cell-based
[18] = Tmax in dog at 10 mg/kg, po measured for 24 hrs by LC-MS/MS analysis; assay type: ADME, organism-based, Canis lupus familiaris; settings: in vivo
[19] = AUC (last) in monkey at 10 mg/kg, po measured for 24 hrs by LC-MS/MS analysis; assay type: ADME, organism-based, Macaca mulatta; settings: rhesus monkey, in vivo
[20] = molecular target: T1, Fibroblast growth factor receptor 3 (Homo sapiens, UniProt P22607); assay: Inhibition of wild-type FGFR3 (unknown origin) by NanoBRET assay
T1 sequence (P22607 whole entry): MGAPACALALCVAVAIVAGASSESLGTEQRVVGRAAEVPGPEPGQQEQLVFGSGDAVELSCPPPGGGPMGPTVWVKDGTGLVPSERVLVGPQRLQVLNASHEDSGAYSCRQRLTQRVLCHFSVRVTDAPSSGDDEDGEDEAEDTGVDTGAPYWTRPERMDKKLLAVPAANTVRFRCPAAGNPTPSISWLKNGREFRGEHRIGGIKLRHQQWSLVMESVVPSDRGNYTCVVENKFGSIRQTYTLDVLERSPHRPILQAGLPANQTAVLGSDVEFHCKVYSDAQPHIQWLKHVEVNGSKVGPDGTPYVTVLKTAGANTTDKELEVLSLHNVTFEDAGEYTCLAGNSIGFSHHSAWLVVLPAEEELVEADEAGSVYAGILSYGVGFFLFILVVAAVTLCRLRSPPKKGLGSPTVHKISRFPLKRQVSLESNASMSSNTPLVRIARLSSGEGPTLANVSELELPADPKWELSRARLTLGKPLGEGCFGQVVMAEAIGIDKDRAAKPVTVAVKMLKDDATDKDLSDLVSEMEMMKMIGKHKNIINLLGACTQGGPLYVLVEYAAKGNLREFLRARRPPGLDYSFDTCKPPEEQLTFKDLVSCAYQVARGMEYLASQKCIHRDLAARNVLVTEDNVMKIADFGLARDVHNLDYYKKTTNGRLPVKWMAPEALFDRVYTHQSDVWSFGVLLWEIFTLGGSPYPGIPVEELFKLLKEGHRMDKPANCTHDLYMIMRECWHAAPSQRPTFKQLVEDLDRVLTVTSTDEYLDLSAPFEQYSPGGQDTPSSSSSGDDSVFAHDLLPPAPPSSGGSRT

[21] = AUC (last) in Sprague-Dawley rat at 10 mg/kg, po measured for 24 hrs by LC-MS/MS analysis; assay type: ADME, organism-based; settings: in vivo
[22] = molecular target: Leukocyte tyrosine kinase receptor (Homo sapiens, UniProt P29376); assay: Inhibition of human LTK by KINOMEscan analysis
Chain of Leukocyte tyrosine kinase receptor (P29376 whole entry): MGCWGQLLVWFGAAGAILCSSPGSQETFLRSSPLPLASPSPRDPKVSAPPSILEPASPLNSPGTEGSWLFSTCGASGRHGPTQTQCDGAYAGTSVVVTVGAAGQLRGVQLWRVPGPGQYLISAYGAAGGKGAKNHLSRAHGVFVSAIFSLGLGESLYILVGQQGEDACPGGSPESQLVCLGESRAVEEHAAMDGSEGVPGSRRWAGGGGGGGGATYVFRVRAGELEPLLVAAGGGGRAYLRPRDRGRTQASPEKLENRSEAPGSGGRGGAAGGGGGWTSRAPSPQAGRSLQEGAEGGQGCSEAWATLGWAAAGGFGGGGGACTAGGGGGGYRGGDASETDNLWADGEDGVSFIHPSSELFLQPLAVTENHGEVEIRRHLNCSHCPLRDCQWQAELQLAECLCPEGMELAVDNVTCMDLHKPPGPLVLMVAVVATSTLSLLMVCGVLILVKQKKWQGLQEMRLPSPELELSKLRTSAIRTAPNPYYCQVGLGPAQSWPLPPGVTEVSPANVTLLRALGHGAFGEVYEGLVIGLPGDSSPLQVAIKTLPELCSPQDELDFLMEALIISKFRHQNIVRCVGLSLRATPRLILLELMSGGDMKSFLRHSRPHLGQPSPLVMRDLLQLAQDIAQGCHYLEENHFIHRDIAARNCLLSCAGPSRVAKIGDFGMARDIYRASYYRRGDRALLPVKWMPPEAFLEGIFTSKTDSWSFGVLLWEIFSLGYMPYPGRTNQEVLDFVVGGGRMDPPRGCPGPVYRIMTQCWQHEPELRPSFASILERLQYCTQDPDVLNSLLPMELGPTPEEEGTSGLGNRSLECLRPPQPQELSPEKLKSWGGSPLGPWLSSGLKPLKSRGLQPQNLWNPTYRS

[23] = molecular target: Tyrosine-protein kinase JAK2 (Homo sapiens, UniProt O60674); assay: Inhibition of human JAK2 by KINOMEscan analysis
[24] = molecular target: Fibroblast growth factor receptor 3 (Homo sapiens, UniProt P22607, V555L); assay: Inhibition of FGFR3 V555L mutant (unknown origin) by mobility shift assay
Chain of Fibroblast growth factor receptor 3 (Homo sapiens, UniProt P22607, V555L) (P22607 23-806 V555L limits assumed): as the sequence (P22607 23-806 V555M limits assumed) above, with M533L counted along it

[25] = molecular target: Vascular endothelial growth factor receptor 3 (Homo sapiens, UniProt P35916); assay: Inhibition of human FLT4 by KINOMEscan analysis
Chain of Vascular endothelial growth factor receptor 3 (P35916 whole entry): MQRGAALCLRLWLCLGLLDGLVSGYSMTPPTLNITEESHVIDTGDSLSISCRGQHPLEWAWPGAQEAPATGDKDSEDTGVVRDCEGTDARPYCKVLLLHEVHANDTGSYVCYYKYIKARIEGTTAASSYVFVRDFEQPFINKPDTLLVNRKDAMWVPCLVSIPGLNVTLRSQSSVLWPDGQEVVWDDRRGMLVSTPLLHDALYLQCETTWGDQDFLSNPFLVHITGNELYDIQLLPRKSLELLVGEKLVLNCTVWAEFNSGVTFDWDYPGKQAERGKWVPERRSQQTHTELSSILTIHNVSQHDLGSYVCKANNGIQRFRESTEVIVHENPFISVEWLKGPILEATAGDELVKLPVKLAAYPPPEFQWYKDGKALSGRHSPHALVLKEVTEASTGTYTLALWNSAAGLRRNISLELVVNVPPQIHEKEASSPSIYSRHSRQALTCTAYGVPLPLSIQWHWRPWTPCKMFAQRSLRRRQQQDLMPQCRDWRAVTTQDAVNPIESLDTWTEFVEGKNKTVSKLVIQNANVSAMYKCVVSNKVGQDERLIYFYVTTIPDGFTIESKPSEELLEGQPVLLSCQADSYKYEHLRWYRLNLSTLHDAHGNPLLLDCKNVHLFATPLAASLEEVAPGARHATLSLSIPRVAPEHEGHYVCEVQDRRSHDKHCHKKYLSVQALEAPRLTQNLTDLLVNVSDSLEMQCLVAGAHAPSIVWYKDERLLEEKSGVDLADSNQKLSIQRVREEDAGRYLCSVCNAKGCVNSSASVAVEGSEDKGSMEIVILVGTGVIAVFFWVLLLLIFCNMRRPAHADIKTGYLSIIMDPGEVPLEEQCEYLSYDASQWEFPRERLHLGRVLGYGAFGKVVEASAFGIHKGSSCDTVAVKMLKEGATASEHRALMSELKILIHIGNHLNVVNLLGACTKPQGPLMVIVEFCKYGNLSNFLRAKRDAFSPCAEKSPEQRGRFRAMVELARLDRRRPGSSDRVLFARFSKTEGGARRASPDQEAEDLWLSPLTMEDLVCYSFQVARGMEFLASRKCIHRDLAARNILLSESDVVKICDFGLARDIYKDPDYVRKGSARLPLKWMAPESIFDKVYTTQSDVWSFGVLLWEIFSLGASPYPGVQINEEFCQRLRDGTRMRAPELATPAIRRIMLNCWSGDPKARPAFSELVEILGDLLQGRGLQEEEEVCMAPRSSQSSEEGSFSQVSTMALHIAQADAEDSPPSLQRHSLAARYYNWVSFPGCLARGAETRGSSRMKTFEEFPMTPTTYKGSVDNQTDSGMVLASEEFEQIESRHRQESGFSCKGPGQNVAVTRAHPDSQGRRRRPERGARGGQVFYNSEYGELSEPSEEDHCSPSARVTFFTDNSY

[26] = Stability in human hepatocytes assessed as half life at 1 uM incubated upto 180 mins by LC-MS/MS analysis; assay type: ADME, cell-based, Hepatocyte
[27] = Apparent permeability in human Caco-2 cells; assay type: ADME, cell-based
[28] = Stability in human hepatocytes assessed as intrinsic clearance at 1 uM incubated upto 180 mins by LC-MS/MS analysis; assay type: ADME, cell-based, Hepatocyte; settings: read-out: CLH
[29] = Inhibition of cell viability in human UMUC14 cells harboring FGFR3 V555M mutant incubated for 72 to 120 hrs by Cell Titer Glo assay; assay type: functional, cell-based
[30] = Oral bioavailability in dog at 10 mg/kg measured for 24 hrs by LC-MS/MS analysis; assay type: ADME, organism-based, Canis lupus familiaris; settings: in vivo
[31] = Thermodynamic solubility in FeSSIF; assay type: ADME; settings: read-out: Therm_solubility
[32] = molecular target: Voltage-gated inwardly rectifying potassium channel KCNH2 (Homo sapiens, UniProt Q12809); assay: Inhibition of hERG expressed in CHO cells by automated patch-clamp assay; assay type: toxicity, cell-based
[33] = Clearance in monkey at 1 mg/kg, iv measured for 24 hrs by LC-MS/MS analysis; assay type: ADME, organism-based, Macaca mulatta; settings: rhesus monkey, in vivo
[34] = molecular target: T1, Fibroblast growth factor receptor 3; assay: Inhibition of wild-type FGFR3 (unknown origin) by mobility shift assay
RT-4 = assay: Inhibition of cell viability in human RT-4 cells harboring FGFR3/TACC3 fusion incubated for 72 to 120 hrs by Cell Titer Glo assay; assay type: functional, cell-based
[35] = AUC (last) in Sprague-Dawley rat at 2 mg/kg, iv measured for 24 hrs by LC-MS/MS analysis; assay type: ADME, organism-based; settings: in vivo
RT112/84 [36] = assay: animal or person; assay type: functional, Homo sapiens; settings: Mus musculus, RT112/84, 504 h, route po, time 21 day, read-out: TGI; remark: listed apart in the source
Description: Antitumor activity against human RT112/84 cells harboring FGFR3/TACC3 fusion xenografted in Balb/c nude mouse model at 12.5 mg/kg, po bid treated for 21 days relative to control

[37] = Half life in dog at 1 mg/kg, iv measured for 24 hrs by LC-MS/MS analysis; assay type: ADME, organism-based, Canis lupus familiaris; settings: in vivo
[38] = Oral bioavailability in monkey at 10 mg/kg measured for 24 hrs by LC-MS/MS analysis; assay type: ADME, organism-based, Macaca mulatta; settings: rhesus monkey, in vivo
[39] = Stability in dog hepatocytes assessed as half life at 1 uM incubated upto 180 mins by LC-MS/MS analysis; assay type: ADME, cell-based, Canis lupus familiaris, Hepatocyte
[40] = AUC (last) in dog at 10 mg/kg, po measured for 24 hrs by LC-MS/MS analysis; assay type: ADME, organism-based, Canis lupus familiaris; settings: in vivo
[41] = molecular target: Vascular endothelial growth factor receptor 1 (Homo sapiens, UniProt P17948); assay: Inhibition of human FLT1 by KINOMEscan analysis
[42] = Stability in rat hepatocytes assessed as half life at 1 uM incubated upto 180 mins by LC-MS/MS analysis; assay type: ADME, cell-based, Hepatocyte
[43] = Half life in Sprague-Dawley rat at 2 mg/kg, iv measured for 24 hrs by LC-MS/MS analysis; assay type: ADME, organism-based; settings: in vivo
[44] = Oral bioavailability in Sprague-Dawley rat at 10 mg/kg measured for 24 hrs by LC-MS/MS analysis; assay type: ADME, organism-based; settings: in vivo
RT112/84 [45] = assay: cells; assay type: functional, cell-based; settings: Homo sapiens; remark: listed apart in the source
Description: Inhibition of cell viability in human RT112/84 cells harboring FGFR3/TACC3 fusion incubated for 72 to 120 hrs by Cell Titer Glo assay

[46] = molecular target: Tyrosine-protein kinase JAK3 (Homo sapiens, UniProt P52333); assay: Inhibition of human JAK3 by KINOMEscan analysis

C[C@@H](Oc1ccc2[nH]nc(-c3ccc(N4CC5(C4)CN(S(C)(=O)=O)C5)nc3)c2c1)c1c(Cl)cncc1Cl
IC50 (DMS-114): 205 nM | Cmax [1]: 3090 ng/mL | IC50 [2]: 325 nM | Vd [3]: 2.5 L/kg | IC50 [4]: 2 nM | clearance [5]: 17.5 mL/min/kg | IC50 [6]: 11 nM | IC50 [7]: 2.3 nM | half-life at 1 µM [8]: > 100 min | Cmax [9]: 802 ng/mL | IC50 [10]: 11 nM | Papp [11]: 1 ×10⁻⁶ cm/s | IC50 (RT112/84 [12]): 17 nM | solubility thermodynamic [13]: 34 µM (≈ 19 µg/mL) | Vd [14]: 0.94 L/kg | inhibition in vivo at 12.5 mg/kg (RT112/84 [15]): 77% | IC50 [16]: 73 nM | IC50 [17]: 16 nM | Tmax [18]: 6 h | AUC(0-t) at 24 h [19]: 15900 ng·h/mL | IC50 [20]: 21 nM | AUC(0-t) at 24 h [21]: 3360 ng·h/mL | IC50 [22]: 65 nM | IC50 [23]: 36 nM | IC50 [24]: 1.5 nM | IC50 [25]: 2.1 nM | half-life at 1 µM [26]: > 100 min | Papp [27]: 1.1 ×10⁻⁶ cm/s | CLint scaled at 1 µM [28]: 14 mL/min/kg | IC50 [29]: 21 nM | bioavailability [30]: 98% | solubility thermodynamic [31]: 514 µM (≈ 288 µg/mL) | IC50 [32]: 9.3 µM | clearance [33]: 11.1 mL/min/kg | IC50 [34]: 1.6 nM | IC50 (RT-4): 10 nM | AUC(0-t) at 24 h [35]: 1730 ng·h/mL | inhibition in vivo at 12.5 mg/kg (RT112/84 [36]): 95% | half-life [37]: 331 min | bioavailability [38]: 106% | half-life at 1 µM [39]: > 100 min | AUC(0-t) at 24 h [40]: 58300 ng·h/mL | IC50 [41]: 201 nM | half-life at 1 µM [42]: 74 min | half-life [43]: 116 min | bioavailability [44]: 39% | IC50 (RT112/84 [45]): 9 nM | IC50 [46]: 206 nM
